# Assay results published in PMC11986510, “Duplexed CeTEAM drug biosensors reveal determinants of PARP inhibitor selectivity in cells” (The Journal of Biological Chemistry, 2025).
# Like-named read-outs stand apart in the source and are kept apart here.
# What was measured:
# PARP2 L269A-mCherry [1] = target: T1, PARP2 L269A-mCherry (Homo sapiens, UniProt Q9UGN5, L282A); assay: cell-based; type: cell-based
# U-2 OS cells [2] = assay: S/G2-phase cell cycle shift from median Hoechst 33342 intensity (trapping-like phenotype); type: cell-based, human; details: for S/G2 enrichment in words: median Hoechst intensity
# PARP1 [3] = details: reported value, footnote b: cell-based assay; literature-derived, no reference given; cited from earlier work
# PARP2 [4] = details: reported value, footnote b: cell-based assay; literature-derived, no reference given; cited from earlier work
# PARP2 L269A-mCherry [5] = target: T1, PARP2 L269A-mCherry; type: cell-based; details: 10 μM, 16 h; hit = statistically significant (p < 0.05)
# PARP1 [6] = details: cited from earlier work
# PARP2 [7] = details: cited from earlier work
# PARP2 [8] = test system: PARP2; parameters: method as in PMID 36961901; details: reported; ref [23]; cited from earlier work
# PARP2 L269A-mCherry [9] = target: T1, PARP2 L269A-mCherry; details: shNT and shHPF1 cells, 24 h
# U-2 OS cells [10] = assay: cells; details: Homo sapiens, U2OS, 24 h
# PARP2 [11] = details: biophysical measures; ref [26]; cited from earlier work
# PARP2 L269A-mCherry [12] = target: T1, PARP2 L269A-mCherry; details: 24-h PARPi treatment
# PARP2 [13] = target: PARP2 (Homo sapiens, UniProt Q9UGN5); details: 10 μM olaparib, CCRF-CEM lysate, 37-70 °C
# U-2 OS cells [14] = details: 24 h PARPi
# [15] = Homo sapiens, U2OS, 24 h, read-out: S/G2 shift EC50
# [16] = PARP2 L269A-mCherry EC50, CeTEAM stabilization, live U-2 OS dual biosensor cells, 24 h PARPi gradient, n = 3
# [17] = Homo sapiens, U2OS, 24 h, read-out: S/G2 shift EC50 (text)
# [18] = reported value, footnote a: biochemical assay, literature-derived, no reference given, read-out: PARP1 IC50
# [19] = reported value, footnote a: biochemical assay, literature-derived, no reference given, read-out: PARP2 IC50
# [20] = CeTEAM stabilization, live U-2 OS dual biosensor cells, 24 h PARPi gradient, n = 3, read-out: PARP2 L269A-mCherry EC50
# [21] = median Hoechst intensity change, 24 h PARPi gradient, PARP1/2 biosensor U-2 OS cells, read-out: S/G2 shift EC50
# [22] = read-out: S/G2 shift EC50, shHPF1
# [23] = read-out: S/G2 shift EC50, shNT
# T1 sequence (Q9UGN5 other isoform, or with tags, fused parts or gaps L269A): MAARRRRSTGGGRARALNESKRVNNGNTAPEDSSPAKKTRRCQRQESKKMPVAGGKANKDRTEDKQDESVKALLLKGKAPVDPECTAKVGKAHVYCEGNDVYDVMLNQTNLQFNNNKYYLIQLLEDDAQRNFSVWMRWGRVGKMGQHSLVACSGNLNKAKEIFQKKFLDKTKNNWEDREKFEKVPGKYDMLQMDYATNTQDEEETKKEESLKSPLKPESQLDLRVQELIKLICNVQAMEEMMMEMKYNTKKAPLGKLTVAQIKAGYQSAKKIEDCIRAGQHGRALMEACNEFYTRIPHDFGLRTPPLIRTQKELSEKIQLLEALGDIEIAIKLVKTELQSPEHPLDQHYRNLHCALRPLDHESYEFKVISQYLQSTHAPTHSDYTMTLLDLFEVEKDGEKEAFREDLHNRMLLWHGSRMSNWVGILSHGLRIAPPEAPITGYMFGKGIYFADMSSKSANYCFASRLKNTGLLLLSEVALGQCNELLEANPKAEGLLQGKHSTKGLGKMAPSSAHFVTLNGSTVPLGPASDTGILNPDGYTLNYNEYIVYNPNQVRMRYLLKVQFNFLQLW
# Sequence of PARP2 (Homo sapiens, UniProt Q9UGN5) (Q9UGN5 whole entry): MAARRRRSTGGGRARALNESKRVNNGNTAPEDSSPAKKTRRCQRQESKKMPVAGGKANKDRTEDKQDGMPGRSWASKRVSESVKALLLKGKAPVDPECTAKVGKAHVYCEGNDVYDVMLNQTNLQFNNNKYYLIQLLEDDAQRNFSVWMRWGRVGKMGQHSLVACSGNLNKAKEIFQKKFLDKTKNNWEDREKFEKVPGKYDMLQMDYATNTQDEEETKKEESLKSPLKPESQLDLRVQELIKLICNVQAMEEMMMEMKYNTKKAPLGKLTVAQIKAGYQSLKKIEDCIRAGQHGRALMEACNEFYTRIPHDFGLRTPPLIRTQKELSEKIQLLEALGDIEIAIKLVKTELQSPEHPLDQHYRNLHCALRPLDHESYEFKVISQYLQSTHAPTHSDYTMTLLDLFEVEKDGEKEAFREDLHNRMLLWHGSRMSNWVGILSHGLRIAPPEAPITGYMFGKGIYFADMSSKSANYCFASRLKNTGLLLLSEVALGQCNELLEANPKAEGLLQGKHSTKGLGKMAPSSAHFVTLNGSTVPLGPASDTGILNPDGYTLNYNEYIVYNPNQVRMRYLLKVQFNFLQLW
molecule,measurement,setting,value
"Oc1cccc2c(O)nccc12 [1,5-Isoquinolinediol]",EC50,PARP2 L269A-mCherry [1]; PARP2 L269A-mCherry EC50,1000 nM
"NC(=O)c1cccc(N)c1 [3-AB, 3-aminobenzamide]",S/G2 enrichment in words,U-2 OS cells [2]; 24 h,no observable activity
NC(=O)c1cccc2nc(-c3ccc([C@@H]4CCCN4)cc3F)[nH]c12 [A-966492],IC50,PARP2 [4],1.5 nM
same,EC50,U-2 OS cells [2]; [15],41.6 nM
same,IC50,PARP1 [3],1 nM
CN(C)Cc1ccc(-c2nc3cccc4c3n2CCNC4=O)cc1 [AG14361],EC50,PARP2 L269A-mCherry [1]; [16],84 nM
same,EC50,U-2 OS cells [2]; [15],1120 nM
same,IC50,PARP1 [3],14 nM
O=C(Nc1c[nH]nc1-c1nc2ccc(CN3CCOCC3)cc2[nH]1)NC1CC1 [AT9283],PARP2 L269A-mCherry abundance change versus DMSO control,PARP2 L269A-mCherry [5],modest but significant effect
Cc1cc(Nc2nc(N[C@@H](C)c3ccc(F)cc3)c(C#N)cc2F)[nH]n1 [AZ960],PARP2 L269A-mCherry abundance change versus DMSO control,PARP2 L269A-mCherry [5],also affected PARP2 L269A-mCherry
N#Cc1cccnc1N1CCN(C(=O)c2cccc(Cc3n[nH]c(=O)c4ccccc34)c2)CC1 [AZ9482],IC50,PARP2 [4],1 nM
same,EC50,U-2 OS cells [2]; [15],0.351 nM
same,EC50,U-2 OS cells [2]; [17],0.35 nM
COC1CCN(C(=O)c2cc(Cc3n[nH]c(=O)c4ccccc34)ccc2F)CC1 [AZD2461],IC50,PARP1 [6]; [18],5 nM
same,EC50,PARP2 L269A-mCherry [1]; [16],36.3 nM
same,EC50,U-2 OS cells [2]; [15],146 nM
same,IC50,PARP2 [7]; [19],2 nM
CCc1cc2ncc(CN3CCN(c4ccc(C(=O)NC)nc4)CC3)cc2[nH]c1=O [AZD5305],IC50,PARP1 [6]; [18],[…]
same,EC50,U-2 OS cells [2]; [15],60.7 nM
same,EC50,U-2 OS cells [2]; [17],~61 nM
same,IC50,PARP2 [7]; [19],1400 nM
Cn1cccc1/C=C1\C(=O)NC(=O)c2ccccc21 [BYK204165],EC50,PARP2 L269A-mCherry [1]; [20],1670 nM
same,IC50,PARP2 [7]; [19],4170 nM
O=c1[nH]nc2c3c(cccc13)N=C(CN1Cc3ccccc3C1)N2 [E7449],EC50,U-2 OS cells [2]; [21],3970 nM
O=C(c1cc(Cc2n[nH]c(=O)c3ccccc23)ccc1F)N1CCn2nc(C(F)(F)F)nc2C1 [Fluzoparib],EC50,PARP2 L269A-mCherry [1]; [16],27.3 nM
same,EC50,U-2 OS cells [2]; [15],46300 nM
NC(=O)c1ccc(I)c([N+](=O)[O-])c1 [Iniparib],PARP2 L269A-mCherry stabilization in words,"PARP2 L269A-mCherry [1]; concentration gradient, 24 h",inactive
same,PARP2 L269A-mCherry biosensor response irrespective of HPF1 levels,PARP2 L269A-mCherry [9],unaffected
O=c1[nH]c(SCCN2CCN(c3ccccn3)CC2)nc2ccccc12 [MC2050],IC50,PARP1 [6]; [18],9.3 nM
same,EC50,PARP2 L269A-mCherry [1]; [20],2500 nM
same,IC50,PARP2 [7]; [19],549 nM
CNCc1ccc(-c2cc3cc(F)cc(C(N)=O)c3o2)cc1 [Mefuparib],IC50,PARP1 [6]; [18],3.2 nM
same,EC50,PARP2 L269A-mCherry [1]; [16],91.6 nM
same,EC50,U-2 OS cells [2]; [15],2.36 nM
same,IC50,PARP2 [7]; [19],1.9 nM
"NC(=O)c1cc(F)cc2c1C(=O)N(C1CCN(C3CCC(F)(F)CC3)CC1)C2 [NMS-P118, 2-[1-(4,4-Difluorocyclohexyl)piperidin-4-yl]-6-fluoro-3-oxo-2,3-dihydro-1H-isoindole-4-carboxamide]",IC50,PARP1 [6]; [18],9 nM
same,EC50,U-2 OS cells [2]; [15],5880 nM
same,IC50,PARP2 [7]; [19],1390 nM
"NC(=O)c1cccc2cn(-c3ccc([C@@H]4CCCNC4)cc3)nc12 [Niraparib, 2-{4-[(3S)-piperidin-3-yl]phenyl}-2H-indazole-7-carboxamide]",EC50,U-2 OS cells [10]; [22],1.74 nM
same,EC50,U-2 OS cells [10]; [23],7.85 nM
same,Binding to PARP2 worse than to PARP1,PARP2 [11],~50 fold
same,PARP2 L269A-mCherry stabilization by Western blot,PARP2 L269A-mCherry [12],stabilized PARP2 L269A significantly worse than PARP1 L713F
O=C(c1cc(Cc2n[nH]c(=O)c3ccccc23)ccc1F)N1CCN(C(=O)C2CC2)CC1 [Olaparib],Endogenous PARP2 stability by CETSA,PARP2 [13],negligible shifts
same,EC50,U-2 OS cells [2]; [15],25.7 nM
same,EC50,U-2 OS cells [10]; [22],1.89 nM
same,EC50,U-2 OS cells [10]; [23],14.4 nM
same,IC50,PARP2 [7]; [19],1 nM
Cc1nc(Nc2[nH]nc3c2CN(C(=O)N[C@H](CN(C)C)c2ccccc2)C3(C)C)c2sccc2n1 [PF-3758309],PARP2 L269A-mCherry abundance change versus DMSO control,PARP2 L269A-mCherry [5],also affected PARP2 L269A-mCherry
CN(C)CC(=O)Nc1ccc2[nH]c(=O)c3ccccc3c2c1 [PJ34],IC50,PARP1 [6]; [18],110 nM
same,PARP2 cellular EC50 worse than reported IC50,PARP2 L269A-mCherry [1]; CeTEAM EC50 compared to reported IC50,> 10 fold
same,EC50,U-2 OS cells [2]; [21],3750 nM
C[C@]12CCCN1CC1=NNC(=O)c3cc(F)cc4[nH]c2c1c34 [Pamiparib],EC50,PARP2 L269A-mCherry [1]; [16],1.47 nM
same,EC50,U-2 OS cells [2]; [15],2.96 nM
same,IC50,PARP2 [7]; [19],0.5 nM
CNCc1ccc(-c2[nH]c3cc(F)cc4c3c2CCNC4=O)cc1 [Rucaparib],EC50,U-2 OS cells [2]; [15],23.7 nM
O=C(c1cc(Cn2c(=O)[nH]c(=O)c3c(F)cccc32)ccc1F)N1CCN(c2ncccn2)CC1 [Senaparib],IC50,PARP1 [6]; [18],0.48 nM
same,EC50,PARP2 L269A-mCherry [1]; PARP2 L269A-mCherry EC50,5.26 nM
same,EC50,PARP2 L269A-mCherry [1]; PARP2 L269A-mCherry stabilization EC50,5.3 nM
same,EC50,U-2 OS cells [2]; [15],0.398 nM
same,EC50,U-2 OS cells [2]; [17],0.4 nM
same,IC50,PARP2 [7]; [19],1.6 nM
Cn1ncnc1[C@H]1c2n[nH]c(=O)c3cc(F)cc(c23)N[C@@H]1c1ccc(F)cc1 [Talazoparib],EC50,U-2 OS cells [2]; [15],0.278 nM
same,EC50,U-2 OS cells [2]; [17],0.28 nM
same,EC50,U-2 OS cells [10]; [22],0.09 nM
same,EC50,U-2 OS cells [10]; [23],0.29 nM
CC(C)(O)c1ccc(-c2nc3c(F)cc(F)cc3c(=O)[nH]2)cc1 [Tankyrase-IN-2],IC50,PARP1 [6]; [18],710 nM
same,EC50,PARP2 L269A-mCherry [1]; [20],13200 nM
same,S/G2 enrichment in words,U-2 OS cells [2]; 24 h,no observable activity
C[C@]1(c2nc3c(C(N)=O)cccc3[nH]2)CCCN1 [Veliparib],EC50,"U-2 OS cells [14]; read-out: S/G2 shift EC50, shHPF1, HPF1 knockdown",55 nM
same,EC50,"U-2 OS cells [14]; read-out: S/G2 shift EC50, shNT, control hairpin shNT",709 nM
same,EC50,U-2 OS cells [2]; [21],528 nM
O=C(c1cc(Cc2n[nH]c(=O)c3ccccc23)ccc1F)N1CC(CNC2CC2)C1 [Venadaparib],IC50,"PARP1 [6]; biochemical inhibition data, ref [30], [31], read-out: Biochemical inhibition of PARP1",0.8 nM
same,EC50,PARP2 L269A-mCherry [1]; [16],5.94 nM
same,EC50,"PARP2 L269A-mCherry [1]; PARP2 L269A-mCherry stabilization EC50, live-cell CeTEAM, 24 h",5.94 nM
same,EC50,U-2 OS cells [2]; [15],197 nM
same,IC50,"PARP2 [7]; biochemical inhibition data, ref [30], [31], read-out: Biochemical inhibition of PARP2",3 nM
bisindolylmaleimide I,PARP2 L269A-mCherry abundance change versus DMSO control,PARP2 L269A-mCherry [5],significantly decreased
